Literature values in PubChem BioAssay AID1259409 (Chemical Carcinogenesis Research Information System (CCRIS), 2018).

Test system: rodent chemically induced tumor inhibition, incidence and multiplicity
Experiment: CCRIS tumor inhibitor studies

## NCCS
Carcinogen: N-METHYL-N'-NITRO-N-NITROSOGUANIDINE, 70-25-7, Dose [Inhibitor]: 0, 25 MG/KG IN 0.9% SALINE PLUS 2 MG/KG PROPANOLOL IN OLIVE OIL 1/2 D BEGINNING 1 WK POST LAST CARCINOGEN DOSE AND CONTI, Route [Inhibitor]: SUBCUTANEOUS, Species: RAT, Strain/Sex: WISTAR/MALE, Target Tissue: Type of Lesion: STOMACH: ADENOCARCINOMA, Dose [Carcinogen]: 100 UG/ML IN DRINKING WATER FOR 25 WK, Promoter: NONE USED
  tumour outcome (control, treated, inhibition, significance): 16/20 (80%), 2/22 (9%), 89%, p<0.001
Carcinogen: N-METHYL-N'-NITRO-N-NITROSOGUANIDINE, 70-25-7, Dose [Inhibitor]: 0, 25 MG/KG IN 0.9% SALINE PLUS 50 MG/KG CIMETIDINE IN OLIVE OIL 1/2 D BEGINNING 1 WK POST LAST CARCINOGEN DOSE AND CONT, Route [Inhibitor]: SUBCUTANEOUS, Species: RAT, Strain/Sex: WISTAR/MALE, Target Tissue: Type of Lesion: STOMACH: ADENOCARCINOMA, Dose [Carcinogen]: 100 UG/ML IN DRINKING WATER FOR 25 WK, Promoter: NONE USED
  tumour outcome (control, treated, inhibition, significance): 16/20 (80%), 12/21 (57%), 29%, not significant
Carcinogen: N-METHYL-N'-NITRO-N-NITROSOGUANIDINE, 70-25-7, Dose [Inhibitor]: 0, 25 MG/KG IN 1 ML/KG OLIVE OIL 1/2 D FOR STUDY DURATION BEGINNING POST CARCINOGEN TREATMENT (STUDY DURATION: 52 WK), Route [Inhibitor]: SUBCUTANEOUS, Species: RAT, Strain/Sex: WISTAR/MALE, Target Tissue: Type of Lesion: GLANDULAR STOMACH: ADENOCARCINOMA, Dose [Carcinogen]: 50 UG/ML DRINKING WATER FOR 25 WK
  tumour outcome (control, treated, inhibition, significance): 13/18 (72%), 6/20 (30%), 58%, p<0.05
Carcinogen: N-METHYL-N'-NITRO-N-NITROSOGUANIDINE, 70-25-7, Dose [Inhibitor]: 0, 50 MG/KG IN 0.9% SALINE 1/2 D BEGINNING POST CARCINOGEN DOSE AND CONTINUING FOR DURATION OF STUDY (STUDY DURATION: 52, Route [Inhibitor]: SUBCUTANEOUS, Species: RAT, Strain/Sex: WISTAR/MALE, Target Tissue: Type of Lesion: STOMACH: ADENOCARCINOMA, Dose [Carcinogen]: 50 UG/ML DRINKING WATER FOR 25 WK, Promoter: NONE USED
  tumour outcome (control, treated, inhibition, significance): 12/19 (63%), 5/20 (25%), 58%, p<0.05
Carcinogen: N-METHYL-N'-NITRO-N-NITROSOGUANIDINE, 70-25-7, Dose [Inhibitor]: 0, 280 MG/KG 1/2 D FOR STUDY DURATION (STUDY DURATION: 52 WK), Route [Inhibitor]: SUBCUTANEOUS, Species: RAT, Strain/Sex: WISTAR/MALE, Target Tissue: Type of Lesion: STOMACH: ADENOCARCINOMA, Dose [Carcinogen]: 50 UG/ML DRINKING WATER FOR 25 WK, Promoter: NONE USED
  tumour outcome (control, treated, inhibition, significance): 75%, 18%, 76%, p<0.01
Carcinogen: N-METHYL-N'-NITRO-N-NITROSOGUANIDINE, 70-25-7, Dose [Inhibitor]: 0.4% IN DIET FOR 26 WK GIVEN POST CARCINOGEN (STUDY DURATION: 52 WK), Route [Inhibitor]: ORAL, Species: RAT, Strain/Sex: WISTAR/MALE, Target Tissue: Type of Lesion: STOMACH: ADENOCARCINOMA, Dose [Carcinogen]: 50 UG/ML DRINKING WATER FOR 25 WK, Promoter: NONE USED
  tumour outcome (control, treated, inhibition, significance): 16/20 (80%), 9/20 (45%), 44%, p<0.05
Carcinogen: TRANS-5-AMINO-3-[2-(5-NITRO-2-FURYL)VINYL]-1,2,4-OXADIAZOLE;SQL8506, 28754-68-9, Carcinogen: TRANS-5-AMINO-3-[2-(5-NITRO-2-FURYL)VINYL]-1,2,4-OXADIAZOLE;SQL8506, 28754-68-9, Dose [Inhibitor]: 210 MG/KG 16 HR BEFORE THE 1ST CARCINOGEN DOSE FOLLOWED BY IP INJECTIONS (210 MG/KG) IMMEDIATELY BEFORE EACH DOSE OF CAR, Route [Inhibitor]: INTRAMUSCULAR/INTRAPERITONEAL, Species: MOUSE, Strain/Sex: CD-1/FEMALE, Target Tissue: Type of Lesion: HEMATOPOIETIC: MYELOID LEUKEMIA, Dose [Carcinogen]: 1 G/KG 2/D FOR 5 D EVERY 4 WK FOR 3 COURSES TREATMENT, Promoter: NONE USED
  tumour outcome (control, treated, inhibition, significance): 7/137 (5%), 0/28 (0%), 100%, not calculated
Carcinogen: TRANS-5-AMINO-3-[2-(5-NITRO-2-FURYL)VINYL]-1,2,4-OXADIAZOLE;SQL8506, 28754-68-9, Carcinogen: TRANS-5-AMINO-3-[2-(5-NITRO-2-FURYL)VINYL]-1,2,4-OXADIAZOLE;SQL8506, 28754-68-9, Dose [Inhibitor]: 210 MG/KG 16 HR BEFORE THE 1ST CARCINOGEN DOSE FOLLOWED BY IP INJECTIONS (210 MG/KG) IMMEDIATELY BEFORE EACH DOSE OF CAR, Route [Inhibitor]: INTRAMUSCULAR/INTRAPERITONEAL, Species: MOUSE, Strain/Sex: CD-1/FEMALE, Target Tissue: Type of Lesion: LYMPHOID TISSUE: NONTHYMIC LYMPHOMA, Dose [Carcinogen]: 1 G/KG 2/D FOR 5 D EVERY 4 WK FOR 3 COURSES OF TREATMENT, Promoter: NONE USED
  tumour outcome (control, treated, inhibition, significance): 8/137 (6%), 0/28 (0%), 100%, not calculated
Carcinogen: TRANS-5-AMINO-3-[2-(5-NITRO-2-FURYL)VINYL]-1,2,4-OXADIAZOLE;SQL8506, 28754-68-9, Carcinogen: TRANS-5-AMINO-3-[2-(5-NITRO-2-FURYL)VINYL]-1,2,4-OXADIAZOLE;SQL8506, 28754-68-9, Dose [Inhibitor]: 210 MG/KG 16 HR BEFORE THE 1ST CARCINOGEN DOSE FOLLOWED BY IP INJECTIONS (210 MG/KG) IMMEDIATELY BEFORE EACH DOSE OF CAR, Route [Inhibitor]: INTRAMUSCULAR/INTRAPERITONEAL, Species: MOUSE, Strain/Sex: CD-1/FEMALE, Target Tissue: Type of Lesion: LYMPHOID TISSUE: THYMIC LYMPHOMA, Dose [Carcinogen]: 1 G/KG 2/D FOR 5 D EVERY 4 WK FOR 3 COURSES OF TREATMENT, Promoter: NONE USED
  tumour outcome (control, treated, inhibition, significance): 22/137 (16%), 1/28 (4%), 75%, not calculated
Carcinogen: TRANS-5-AMINO-3-[2-(5-NITRO-2-FURYL)VINYL]-1,2,4-OXADIAZOLE;SQL8506, 28754-68-9, Carcinogen: TRANS-5-AMINO-3-[2-(5-NITRO-2-FURYL)VINYL]-1,2,4-OXADIAZOLE;SQL8506, 28754-68-9, Dose [Inhibitor]: 210 MG/KG 16 HR BEFORE THE 1ST CARCINOGEN DOSE FOLLOWED BY IP INJECTIONS (210 MG/KG) IMMEDIATELY BEFORE EACH DOSE OF CAR, Route [Inhibitor]: INTRAMUSCULAR/INTRAPERITONEAL, Species: MOUSE, Strain/Sex: CD-1/FEMALE, Target Tissue: Type of Lesion: STOMACH: SQUAMOUS CARCINOMA, Dose [Carcinogen]: 1 G/KG 2/D FOR 5 D EVERY 4 WK FOR 3 COURSES OF TREATMENT, Promoter: NONE USED
  tumour outcome (control, treated, inhibition, significance): 60/137 (44%), 13/28 (46%), -4%, not calculated
